According to patent publication US9238715B2, “Polymerizable composition for ophthalmic and medical use and antimicrobial composition obtained by polymerizing the polymerizable composition” (NANYANG TECHNOLOGICAL UNIVERSITY, priority 2010, dated 2016):

Columns and labels:
Assay in all cases: MIC by microtiter dilution in Mueller Hinton Broth
Conditions in all cases: 5×10^5 CFU/ml, 37° C., 18 hours, A600
S. aureus = type: cell-based, Staphylococcus aureus
Description: (§1) Minimal inhibitory concentrations (MIC) were determined by a standard microtiter dilution method in Mueller Hinton Broth (MHB) medium. Bacteria cells were grown overnight at 37° C. in MHB medium and diluted to a bacteria concentration of 10^6 colony forming units (CFU)/ml. The bacteria concentration was adjusted to 5×10^5 CFU/ml by adding 100 μl of a suspension of the bacteria cultured under the above conditions to 100 μl of a polylysine aqueous solution diluted to 10^3 to 1 μg/ml, and samples were prepared. The samples were incubated at 37° C. for 18 hours, and the MICs (lowest polylysine concentration that inhibited cell growth) after 18 hours were determined.

C. albicans = type: cell-based, Candida albicans
Description: as §1

P. aeruginosa = type: cell-based, Pseudomonas aeruginosa
Description: as §1

S. marcescence = type: cell-based, Serratia marcescens
Description: as §1

F. solani = type: cell-based, Fusarium solani
Description: as §1

E. Coli = type: cell-based, Escherichia coli
Description: as §1

| Substance | MIC (S. aureus) [µg/mL] | MIC (C. albicans) [µg/mL] | MIC (P. aeruginosa) [µg/mL] | MIC (S. marcescence) [µg/mL] | MIC (F. solani) [µg/mL] | MIC (E. Coli) [µg/mL] |
| --- | --- | --- | --- | --- | --- | --- |
| epsilon-polylysine [EPL] | 7.8 | 54 | 7.8 | 15.6 | 109 | 7.8 |
| methacrylated epsilon-polylysine [MA-EPL] |  | 27 | 7.8 | 15.6 | 54 | 7.8 |
